Read-outs that look alike come from different tables or passages of the source.
Test system: LPS-induced IL-6 release level from THP-1 cells
Test: Test of IL-6 release from THP-1 cells (LPS-induced, IL-6 in supernatant detected by CBA)
Assay type: cell-based
Conditions: Homo sapiens, read-out: Inhibition rate @ 10 uM
Description: Test of IL-6 Release from THP-1 Cells
The inhibitory effect of the compound on LPS-induced IL-6 release level from THP-1 cells was evaluated by measuring the level of IL-6 in the cell culture supernatant.
4 ul was taken from each above solution and added to lml of culture solution to make 120 uM, 40 uM, 12 uM, 4 uM. 50 ul per well was taken and added to wells with cells to give final concentrations of 30 uM, 10 uM, 3 uM, and 1 uM, respectively. Dexamethasone was added as a positive drug into an individual cell well with a final concentration of 100 nM. • c) Cell stimulation
The LPS 1 mg/ml solution was diluted to 800 ng/ml with the culture solution and added to the cell culture wells at 50 ul/well. • d) Cell incubation and detection
The cell culture plate was placed in a 37° C. incubator, and the supernatant was collected after culturing for 24 hours. The level of IL-6 in the supernatant was detected by CBA.

[1] = inflammatory factor IL-6 detected by CBA, compound 10 uM, LPS-stimulated THP-1 cells, supernatant after 24 hours

Row | Structure (SMILES) | inhibition at 10 µM [1] [%] | inhibition at 10 µM (THP-1, 24 h) [%]
1 | C=C1CCC2[C@]3(C)CO[C@@H](C4CCCC4)O[C@@H]3CC[C@@]2(C)[C@@H]1CCOC1CCN(C)CC1 (stereo partly drawn) [Compound 366, 4-(2-((3R,4aR,6aS,7R,10bR)-3-cyclopentyl-6a,10b-dimethyl-8-dihydromethylenedecahydro-1H-naphtho[2,1-d][1,3]dioxin-7-yl)ethoxy)-1-methylpiperidine] | > 60 | –
2 | C=C1CCC2[C@]3(C)CO[C@@H](C4CCCC4)O[C@@H]3CC[C@@]2(C)[C@@H]1CCOc1ccc(F)cc1C(=O)O (stereo partly drawn) [Compound 409, 2-(2-((3R,4aR,6aS,7R,10bR)-3-cyclopentyl-6a,10b-dimethyl-8-dihydromethylenedecahydro-1H-naphtho[2,1-d][1,3]dioxin-7-yl)ethoxy)-5-fluorobenzoic acid] | < 30 | –
3 | C=C1CCC2[C@]3(C)CO[C@@H](C4CCCC4)O[C@@H]3CC[C@@]2(C)[C@@H]1CCOc1cc(Cl)ccc1C(=O)O (stereo partly drawn) [Compound 448, 4-chloro-2-(2-((3R,4aR,6aS,7R,10bR)-3-cyclopentyl-6a,10b-dimethyl-8-dihydromethylenedecahydro-1H-naphtho[2,1-d][1,3]dioxin-7-yl)ethoxy)benzoic acid] | – | < 30
4 | C=C1CCC2[C@]3(C)CO[C@@H](C4CCCC4)O[C@@H]3CC[C@@]2(C)[C@@H]1CCOC1CCN(C(C)(C)C(=O)O)CC1 (stereo partly shown) [Compound 463] | > 60 | –
5 | C=C1CCC2[C@]3(C)CO[C@@H](C4CCCC4)O[C@@H]3CC[C@@]2(C)[C@@H]1CCN(CC(=O)O)CC(=O)O (stereo partly drawn) [Compound 404, 2,2′-((2-((3R,4aR,6aS,7R,10bR)-3-cyclopentyl-6a,10b-dimethyl-8-methylene-decahydro-1H-naphtho[2,1-d][1,3]dioxin-7-yl)ethyl)azanediyl)diacetic acid] | – | < 30
6 | C=C1CCC2[C@]3(C)CO[C@@H](C4CCCC4)O[C@@H]3CC[C@@]2(C)[C@@H]1CCOc1cscc1C(=O)O (stereo partly drawn) [Compound 453, 4-(2-((3R,4aR,6aS,7R,10bR)-3-cyclopentyl-6a,10b-dimethyl-8-dihydromethylenedecahydro-1H-naphtho[2,1-d][1,3]dioxin-7-yl)ethoxy)thiophene-3-carboxylic acid] | > 60 | –
7 | C=C1CCC2[C@]3(C)CO[C@@H](c4ccc(F)c(F)c4)O[C@@H]3CC[C@@]2(C)[C@@H]1CCN1CCN(C)C1=O (stereo partly drawn) [Compound 212, 3-(2-((3R,4aR,6aS,7R,10bR)-3-(3,4-difluorophenyl)-6a,10b-dimethyl-8-decahydromethylene-1H-naphtho[2,1-d][1,3]dioxin-7-yl)ethyl)-1-methyltetrahydroimidazol-2-one] | > 60 | –
8 | C=C1CCC2[C@]3(C)CO[C@@H](C4CCCC4)O[C@@H]3CC[C@@]2(C)[C@@H]1CCOc1ccncc1F (stereo partly drawn) [Compound 344, 4-(2-((3R,4aR,6aS,7R,10bR)-3-cyclopentyl-6a,10b-dimethyl-8-dihydromethylenedecahydro-1H-naphtho[2,1-d][1,3]dioxin-7-yl)ethoxy)-3-fluoropyridine] | > 60 | –
9 | C=C1CCC2[C@]3(C)CO[C@@H](C4CCCC4)O[C@@H]3CC[C@@]2(C)[C@@H]1CCOc1ccccc1C(=O)O (stereo partly drawn) [Compound 407, 2-(2-((3R,4aR,6aS,7R,10bR)-3-cyclopentyl-6a,10b-dimethyl-8-dihydromethylenedecahydro-1H-naphtho[2,1-d][1,3]dioxin-7-yl)ethoxy)benzoic acid] | > 60 | –
10 | C=C1CCC2[C@]3(C)CO[C@@H](CCC(=O)OC)O[C@@H]3CC[C@@]2(C)[C@@H]1CCOc1ccncc1 (stereo partly shown) [Compound 405] | < 30 | –
11 | C=C1CCC2[C@]3(C)CO[C@@H](C4CCCC4)O[C@@H]3CC[C@@]2(C)[C@@H]1CCOc1cncc(C(=O)O)c1 (stereo partly drawn) [Compound 406, 5-(2-((3R,4aR,6aS,7R,10bR)-3-cyclopentyl-6a,10b-dimethyl-8-dihydromethylenedecahydro-1H-naphtho[2,1-d][1,3]dioxin-7-yl)ethoxy)nicotinic acid] | – | < 30
12 | C=C1CCC2[C@]3(C)CO[C@@H](C4CCCC4)O[C@@H]3CC[C@@]2(C)[C@@H]1CCOc1cc[nH]c(=O)c1 (stereo partly drawn) [Compound 430, 4-(2-((3R,4aR,6aS,7R,10bR)-3-cyclopentyl-6a,10b-dimethyl-8-dihydromethylenedecahydro-1H-naphtho[2,1-d][1,3]dioxin-7-yl)ethoxy)pyridin-2(1H)-one] | 30 to 60 | –
13 | C=C1CCC2[C@]3(C)CO[C@@H](C4CCCC4)O[C@@H]3CC[C@@]2(C)[C@@H]1CCOC1CCN(C(=O)CN)CC1 (stereo partly drawn) [Compound 373, 2-Amino-1-(4-(2-((3R,4aR,6aS,7R,10bR)-3-cyclopentyl-6a,10b-dimethyl-8-methylenedecahydro-1H-naphtho[2,1-d][1,3]dioxin-7-yl)ethoxy)piperidine-1-yl)acetamide] | – | 30 to 60
14 | C=C1CCC2[C@]3(C)CO[C@@H](C4CCCC4)O[C@@H]3CC[C@@]2(C)[C@@H]1CCNc1ccncc1F (stereo partly drawn) [Compound 345, N-(2-((3R,4aR,6aS,7R,10bR)-3-cyclopentyl-6a,10b-dimethyl-8-decahydromethylene-1H-naphtho[2,1-d][1,3]dioxin-7-yl)ethyl)-3-fluoropyridin-4-amine] | – | 30 to 60
15 | C=C1CCC2[C@]3(C)CO[C@@H](C4CCCC4)O[C@@H]3CC[C@@]2(C)[C@@H]1CCN(CCO)CCO (stereo partly drawn) [Compound 191, 3-((2-((3R,4aR,6aS,7R,10bR)-3-cyclopentyl-6a,10b-dimethyl-8-methylene-decahydro-1H-naphtho[2,1-d][1,3]dioxin-7-yl)ethyl)amino)N,N-diethanolamine] | < 30 | –
16 | C=C1CCC2[C@]3(C)CO[C@@H](C4CCCC4)O[C@@H]3CC[C@@]2(C)[C@@H]1CCn1cc(C(=O)O)ccc1=O (stereo partly drawn) [Compound 457, 1-(2-((3R,4aR,6aS,7R,10bR)-3-cyclopentyl-6a,10b-dimethyl-8-dihydromethylene-1H-naphtho[2,1-d][1,3]dioxin-7-yl)ethyl)-6-oxo-1,6-dihydropyridine-3-carboxylic acid] | – | > 60
17 | C=C1CCC2[C@]3(C)CO[C@@H](C4CCCC4)O[C@@H]3CC[C@@]2(C)[C@@H]1CCOc1ccncc1 (stereo partly drawn) [Compound 297, 4-(2-((3R,4aR,6aS,7R,10bR)-3-cyclopentyl-6a,10b-dimethyl-8-dihydromethylenedecahydro-1H-naphtho[2,1-d][1,3]dioxin-7-yl)ethoxy)pyridine] | > 60 | –
18 | C=C1CCC2[C@]3(C)CO[C@@H](C4CCCC4)O[C@@H]3CC[C@@]2(C)[C@@H]1CCOc1ccn(C)c(=O)c1 (stereo partly drawn) [Compound 357, 4-(2-((3R,4aR,6aS,7R,10bR)-3-cyclopentyl-6a,10b-dimethyl-8-dihydromethylenedecahydro-1H-naphtho[2,1-d][1,3]dioxin-7-yl)ethoxy)-1-methylpyridin-2(1H)-one] | > 60 | –
19 | C=C1CCC2[C@]3(C)CO[C@@H](C4CCCC4)O[C@@H]3CC[C@@]2(C)[C@@H]1CCOc1ccncc1C(=O)O (stereo partly drawn) [Compound 397, 4-(2-((3R,4aR,6aS,7R,10bR)-3-cyclopentyl-6a,10b-dimethyl-8-dihydromethylenedecahydro-1H-naphtho[2,1-d][1,3]dioxin-7-yl)ethoxy)nicotinic acid] | > 60 | –
20 | C=C1CCC2[C@]3(C)CO[C@@H](C4CCCC4)O[C@@H]3CC[C@@]2(C)[C@@H]1CCN1CCC(N2CCCC2)CC1 (stereo partly drawn) [Compound 160, 1-(2-((3R,4aR,6aS,7R,10bR)-3-cyclopentyl-6a,10b-dimethyl-8-methylene-decahydro-1H-naphtho[2,1-d][1,3]dioxin-7-yl)ethyl)-4-(pyrrolidin-1-yl)piperidine] | > 60 | –
21 | C=C1CCC2[C@]3(C)CO[C@@H](C4CCCC4)O[C@@H]3CC[C@@]2(C)[C@@H]1CCOc1ccccn1 (stereo partly drawn) [Compound 317, 2-(2-((3R,4aR,6aS,7R,10bR)-3-cyclopentyl-6a,10b-dimethyl-8-dihydromethylenedecahydro-1H-naphtho[2,1-d][1,3]dioxin-7-yl)ethoxy) pyridine] | > 60 | –
22 | C=C1CCC2[C@]3(C)CO[C@@H](C4CCCC4)O[C@@H]3CC[C@@]2(C)[C@@H]1CCOc1ccnc(C(=O)O)c1 (stereo partly drawn) [Compound 410, 4-(2-((3R,4aR,6aS,7R,10bR)-3-cyclopentyl-6a,10b-dimethyl-8-dihydromethylenedecahydro-1H-naphtho[2,1-d][1,3]dioxin-7-yl)ethoxy)picolinic acid] | 30 to 60 | –
23 | C=C1CCC2[C@]3(C)CO[C@@H](C4CCCC4)O[C@@H]3CC[C@@]2(C)[C@@H]1CCOCc1ccncc1 (stereo partly drawn) [Compound 351, 4-((2-((3R,4aR,6aS,7R,10bR)-3-cyclopentyl-6a,10b-dimethyl-8-dihydromethylenedecahydro-1H-naphtho[2,1-d][1,3]dioxin-7-yl)ethoxy)methyl)pyridine] | > 60 | –
24 | C=C1CCC2[C@]3(C)CO[C@@H](C4CCCC4)O[C@@H]3CC[C@@]2(C)[C@@H]1CCOc1cc(F)ccc1C(=O)O (stereo partly drawn) [Compound 441, 2-(2-((3R,4aR,6aS,7R,10bR)-3-cyclopentyl-6a,10b-dimethyl-8-dihydromethylenedecahydro-1H-naphtho[2,1-d][1,3]dioxin-7-yl)ethoxy)-4-fluorobenzoic acid] | 30 to 60 | –
25 | C=C1CCC2[C@]3(C)CO[C@@H](C4CCCC4)O[C@@H]3CC[C@@]2(C)[C@@H]1CCN1CCOCC1 (stereo partly drawn) [Compound 123, 4-(2-((3R,4aR,6aS,7R,10bR)-3-cyclopentyl-6a,10b-dimethyl-8-methylenedecahydro-1H-naphtho[2,1-d][1,3]dioxin-7-yl)ethyl)morpholine] | < 30 | –

— patent US10717720B2, “Modified compound of andrographolide” (Heilongjiang Zhenbaodao Pharmaceutical Co., Ltd., priority 2015, dated 2020)
